Measurements from ChEMBL document CHEMBL1126998, “-lactam derivatives from 1-H-1,2-diazepines” (Bioorg Med Chem Lett, 1993).
Values joined by “and” are separate entries in the source; they are usually repeats but may differ in a detail not shown here. Equal entries are not always repeated.

Tests used:
JM1 [1] = test: Tested for antiviral uM; Activity expressed as % inhibition of syncytium; assay type: functional, Homo sapiens
JM1 [2] = test: Tested for the cytotoxicity against JM cells at 100 uM in an MTT assay; assay type: functional, Homo sapiens
JM1 [3] = test: (§1) Tested for antiviral activity of compound against HIV (Strain GB 8) in JM cells; assay type: functional, cell-based; settings: Homo sapiens
JM1 [4] = test: as §1; assay type: functional, Homo sapiens
JM1 [5] = test: as §1; assay type: functional, cell-based; settings: Homo sapiens; remark: listed apart in the source

SMILES | Inhibition (JM1 [1]) | Cytotoxicity (JM1 [2]) | IC50 (JM1 [3]) [µM] | IC90 (JM1 [4]) [µM] | IC90 (JM1 [4]; Homo sapiens, JM1) [µM] | IC50 (JM1 [5]) [µM]
COC(=O)NN1C(=O)[C@H](C)[C@H]1[C@@H]1NC[C@@H](O)[C@H]1O.Cl | 20% and 27% |  |  |  |  | 
O[C@H]1[C@H](O)[C@@H](O)CN2CC[C@H](O)[C@H]12 [CASTANOSPERMINE] |  | 0% and 4% | 8.8 | 24.5 | 28.2 | 7.3
